# Laboratory results taken from patent publication US9006243B2, “HIV inhibiting 6-substituted pyrimidines” (Janssen R&D Ireland, priority 2006, dated 2015).
# Like-named read-outs stand apart in the source and are kept apart here.
# Columns and labels:
# Experiment in all cases: microbe, parasite or virus in culture
# HIV strain Y181C = format: cell-based, HIV-1; details: for Y181C pEC50 (−log EC50): HIV strain Y181C, MT4 LTR-EGFP cells, three days after infection; for EC50: Human immunodeficiency virus 1, 72 h, read-out: Y181C pEC50 (−log EC50) (converted)
# Excerpt: (§1) Image analysis allows very sensitive detection of viral infection.
# HIV strain K103N + Y181C = format: cell-based, HIV-1; details: for K103N + Y181C pEC50 (−log EC50): HIV strain K103N + Y181C, MT4 LTR-EGFP cells, three days after infection; for EC50: Human immunodeficiency virus 1, 72 h, read-out: K103N + Y181C pEC50 (−log EC50) (converted)
# Excerpt: as §1
# HIV strain L100I + K103N = format: cell-based, HIV-1; details: for L100I + K103N pEC50 (−log EC50): HIV strain L100I + K103N, MT4 LTR-EGFP cells, three days after infection; for EC50: Human immunodeficiency virus 1, 72 h, read-out: L100I + K103N pEC50 (−log EC50) (converted)
# Excerpt: as §1
# [1] = tested on: HIV strain IIIB (wild type); details: for EC50: Human immunodeficiency virus 1, IIIB, 72 h, read-out: IIIB pEC50 (−log EC50) (converted)
# Procedure: Compounds of the invention were tested for their potency against wild type virus and clinically isolated HIV strains harboring one or more mutations associated with resistance to reverse transcriptase inhibitors. Antiviral activity was evaluated using a cellular assay performed according to the following procedure.
# The human T-cell line MT4 was engineered with Green Fluorescent Protein (GFP) and a HIV-specific promoter, HIV-1 long terminal repeat (LTR). This cell line, designated MT4 LTR-EGFP, can be used for the in vitro evaluation of anti-HIV activity of investigational compounds. In HIV-1 infected cells, the Tat protein is produced, which upregulates the LTR promotor and eventually leads to stimulation of the GFP reporter production, allowing to measure ongoing HIV-infection fluorometrically.
# Analogously, MT4 cells were engineered with GFP and the constitutional cytomegalovirus (CMV) promotor. […] Cytotoxic investigational compounds reduce GFP levels of mock-infected MT4 CMV-EGFP cells.
# The ratio of CC50 to EC50 is defined as the selectivity index (SI) and is an indication of the selectivity of the anti-HIV activity of the inhibitor. The ultimate monitoring of HIV-1 infection and cytotoxicity was done using a scanning microscope. Image analysis allows very sensitive detection of viral infection. Measurements were done before cell necrosis, which usually takes place about five days after infection, in particular measurements were performed three days after infection.
# The columns IIIB, L100I, etc. in the table list the pEC50 (−log EC50) values against various strains IIIB, L100I, etc.; pSI lists the −log SI values.
# Strain IIIB is wild type HIV strain.
# [2] = biological target: HIV strain MDR (L100I, K103N, Y181C, E138G, V179I, L2214F, V278V/I and A327A/V in HIV reverse transcriptase); format: cell-based, HIV-1; details: for MDR pEC50 (−log EC50): MDR HIV strain (multiple RT mutations), MT4 LTR-EGFP cells, three days after infection; for EC50: Human immunodeficiency virus 1, 72 h, read-out: MDR pEC50 (−log EC50) (converted)
# Excerpt: as §1
# “MDR” refers to a strain that contains mutations L100I, K103N, Y181C, E138G, V179I, L2214F, V278V/I and A327A/V in HIV reverse transcriptase.
# [3] = wild type HIV strain IIIB, MT4 LTR-EGFP cells, GFP fluorescence, three days after infection
SMILES,Y181C pEC50 (−log EC50) (HIV strain Y181C),K103N + Y181C pEC50 (−log EC50) (HIV strain K103N + Y181C),L100I + K103N pEC50 (−log EC50) (HIV strain L100I + K103N),IIIB pEC50 (−log EC50) [1],MDR pEC50 (−log EC50) [2],"IIIB pEC50 (−log EC50) [1, 3]",EC50 (HIV strain Y181C) [nM],EC50 (HIV strain K103N + Y181C) [nM],EC50 (HIV strain L100I + K103N) [nM],EC50 [1] [nM],EC50 [2] [nM]
Cc1cc(C=CC#N)cc(C)c1Nc1cc(CN2CCOCC2)nc(Nc2ccc(C#N)cc2)n1 (mixture of isomers) [Compound 12],7.28,6.78,6.50,8.62,5.57,–,–,–,–,–,–
Cc1cc(C=CC#N)cc(C)c1Nc1cc(CNCC2CC2)nc(Nc2ccc(C#N)cc2)n1 (mixture of isomers) [Compound 14],7.85,7.76,7.00,–,5.67,8.52,–,–,–,–,–
COCCNCc1cc(Nc2c(C)cc(C=CC#N)cc2C)nc(Nc2ccc(C#N)cc2)n1 (mixture of isomers) [Compound 15],7.89,7.86,7.42,–,5.55,8.54,–,–,–,–,–
Cc1cc(C=CC#N)cc(C)c1Nc1cc(CNCC2COC(C)(C)O2)nc(Nc2ccc(C#N)cc2)n1 (mixture of isomers) [Compound 16],7.60,7.61,7.06,8.54,5.64,–,–,–,–,–,–
Cc1cc(C=CC#N)cc(C)c1Nc1cc(CNCCc2ccc(S(N)(=O)=O)cc2)nc(Nc2ccc(C#N)cc2)n1 (mixture of isomers) [Compound 17],7.01,7.04,6.41,–,5.56,7.80,–,–,–,–,–
CON(C)Cc1cc(Nc2c(C)cc(C=CC#N)cc2C)nc(Nc2ccc(C#N)cc2)n1 (mixture of isomers) [Compound 18],8.06,7.79,7.48,–,6.33,9.05,–,–,–,–,–
Cc1cc(C=CC#N)cc(C)c1Nc1cc(Cn2ccnc2)nc(Nc2ccc(C#N)cc2)n1 (mixture of isomers) [Compound 19],7.68,6.97,6.83,–,5.32,8.48,–,–,–,–,–
Cc1cc(C=CC#N)cc(C)c1Nc1cc(CNCCc2ccccn2)nc(Nc2ccc(C#N)cc2)n1 (mixture of isomers) [Compound 20],6.99,6.96,6.33,–,5.30,8.46,–,–,–,–,–
CC(=O)NCCNCc1cc(Nc2c(C)cc(C=CC#N)cc2C)nc(Nc2ccc(C#N)cc2)n1 (mixture of isomers) [Compound 22],7.09,7.02,6.35,–,5.50,7.93,–,–,–,–,–
COCC(C)NCc1cc(Nc2c(C)cc(C=CC#N)cc2C)nc(Nc2ccc(C#N)cc2)n1 (mixture of isomers) [Compound 23],7.72,7.78,6.98,–,5.67,8.80,–,–,–,–,–
C=CCNCc1cc(Nc2c(C)cc(C=CC#N)cc2C)nc(Nc2ccc(C#N)cc2)n1 (mixture of isomers) [Compound 24],8.14,7.84,7.31,9.16,5.75,–,–,–,–,–,–
Cc1cc(C=CC#N)cc(C)c1Nc1cc(CNCc2ccccn2)nc(Nc2ccc(C#N)cc2)n1 (mixture of isomers) [Compound 25],7.03,7.30,–,–,5.75,7.63,–,–,–,–,–
Cc1cc(C=CC#N)cc(C)c1Nc1cc(CNCc2ccco2)nc(Nc2ccc(C#N)cc2)n1 (mixture of isomers) [Compound 26],7.62,8.07,–,–,5.57,8.43,–,–,–,–,–
Cc1cc(C=CC#N)cc(C)c1Nc1cc(CNCC2CCCO2)nc(Nc2ccc(C#N)cc2)n1 (mixture of isomers) [Compound 28],7.81,7.82,7.27,–,5.68,8.68,–,–,–,–,–
Cc1cc(C=CC#N)cc(C)c1Nc1cc(CNCCCN2CCOCC2)nc(Nc2ccc(C#N)cc2)n1 (mixture of isomers) [Compound 29],7.06,7.01,6.66,–,5.67,7.70,–,–,–,–,–
Cc1cc(C=CC#N)cc(C)c1Nc1cc(CNCc2ccncc2)nc(Nc2ccc(C#N)cc2)n1 (mixture of isomers) [Compound 30],7.69,7.89,7.56,–,5.80,8.55,–,–,–,–,–
Cc1cc(C=CC#N)cc(C)c1Nc1cc(CNCc2cccs2)nc(Nc2ccc(C#N)cc2)n1 (mixture of isomers) [Compound 31],7.48,7.71,7.13,–,5.48,8.41,–,–,–,–,–
C=CCOCc1cc(Nc2c(C)cc(/C=C/C#N)cc2C)nc(Nc2ccc(C#N)cc2)n1 [Compound 2],7.74,7.15,7.12,–,4.95,8.44,–,–,–,–,–
COc1ccccc1C(O)c1cc(Nc2c(C)cc(/C=C/C#N)cc2C)nc(Nc2ccc(C#N)cc2)n1 (stereo not drawn) [Compound 3],–,–,–,–,–,–,105,263,95.5,7.24,2950
Cc1cc(/C=C/C#N)cc(C)c1Nc1cc(C(=O)c2nccs2)nc(Nc2ccc(C#N)cc2)n1 [Compound 10],–,–,–,–,–,–,3.47,10.7,4.79,2.82,562
Cc1cc(/C=C/C#N)cc(C)c1Nc1cc(CNCc2cccnc2)nc(Nc2ccc(C#N)cc2)n1 [Compound 27],–,–,–,–,–,–,16.2,3.09,–,3.8,1170
